Measurements taken from patent US20260315475A1 (priority 2023, published 2026).
Several values for one entry are separate records, joined by “and”; a condition that tells them apart may be missing. Equal values may be shown once. Read-outs that look alike come from different tables or passages of the source.

Key:
[1] = cited from earlier work
ROCK1 = settings: cited from earlier work
[2] = Embryo-fetal development studies in rats; assay type: in vivo; settings: rat
Protocol: In the pilot study, maternal toxicity and embryo-fetal developmental effects were observed. Maternal toxicity (reduced body weight gain) occurred at 150 and 300 mg/kg/day doses. Increased post-implantation loss occurred at 50 and 300 mg/kg/day.

CYP2D6 [3] = settings: role: substrate; in vitro; cited from earlier work
[4] = Phase I single-dose open-label pharmacokinetic study in participants with normal hepatic function and varying degrees of hepatic impairment; assay type: in vivo, human; settings: for Vd/F / AUC(0-inf) / AUC(0-t) / AUC(0-t) at 24 h / CL/F / Cmax / Tmax / half-life: human, po, 200 mg; for Vd/F / AUC(0-inf) / AUC(0-t) / AUC(0-t) at 24 h / CL/F / Cmax / Tmax / half-life / t1/2 / tlast: plasma; for Vd/F: read-out: Vz/F; for Tmax / tlast: median
Excerpt: The primary objective was to assess the pharmacokinetic (PK) of belumosudil following a single oral dose of belumosudil in participants with mild, moderate, or severe hepatic impairment compared to healthy participants with normal hepatic function.
The secondary objectives were: to evaluate the safety and tolerability of a single oral dose of belumosudil in participants with mild, moderate, or severe hepatic impairment, and in healthy participants with normal hepatic function; to assess the PK of the belumosudil metabolites following a single oral dose of belumosudil in participants with mild, moderate, or severe hepatic impairment compared to healthy participants with normal hepatic function.
Approximately 38 participants were to be enrolled into the following groups based on their hepatic function, as determined according to the Child-Pugh system. • Group 1 (n=approximately 16): matched healthy participants with normal hepatic function • Group 2 (n=8): participants with mild hepatic impairment (Child-Pugh Class A [score of 5 or 6]) • Group 3 (n=8): participants with moderate hepatic impairment (Child-Pugh Class B [score of 7 to 9]) • Group 4 (n=6): participants with severe hepatic impairment (Child-Pugh Class C [score of 10 to 14]).
Healthy participants with normal hepatic function (Group 1) were demographically matched by age (±10 years), sex, and body mass index (BMI; +20%) to participants with hepatic impairment (Groups 2, 3, and 4). Participants with normal hepatic function could be matched to multiple participants across the 3 hepatic impairment groups (mild, moderate, and severe), but could not be matched to more than 1 participant within the same impairment group.
Pharmacokinetic blood samples were obtained from predose until 48 hours postdose (Day 3).
Summary tables, mean (+standard deviation [SD]) figures, overlaying individual figures, and individual figures by hepatic function and time postdose were provided for plasma PK concentrations. Summary tables by hepatic function were provided for all PK parameters, with the exception of terminal phase regression-related diagnostic parameters (λz, λz upper, λ z lower, λz number of points, R2-adj, and % AUCextrap), which were listed only.
All other PK parameters were regarded as secondary and were not participant to inferential statistical analysis.

ROCK2 = settings: cited from earlier work
P-gp [5] = settings: role: inhibitor; clinically relevant concentrations, in vitro; cited from earlier work
CYP2D6 [6] = settings: role: inhibitor; in vitro; cited from earlier work
P-gp [7] = settings: role: substrate; in vitro; cited from earlier work
[8] = age 18 to 77 years, weight 38.6 to 143 kg, mild to moderate renal impairment; cited from earlier work
CYP1A2 = settings: role: inhibitor; in vitro; cited from earlier work
pro-fibrotic signaling = settings: in vitro; cited from earlier work
[9] = pregnant rabbits, cited from earlier work
CYP2C8 = settings: role: substrate; in vitro; cited from earlier work
UGT1A9 = settings: role: inhibitor; in vitro; cited from earlier work
[10] = single oral 200 mg belumosudil, fed, mild hepatic impairment, geometric mean (CV %)
[11] = single oral 200 mg belumosudil, fed, moderate hepatic impairment, geometric mean (CV %)
[12] = single oral 200 mg belumosudil, fed, normal hepatic function, geometric mean (CV %)
[13] = single oral 200 mg belumosudil, fed, severe hepatic impairment, geometric mean (CV %)
[14] = single oral 200 mg belumosudil, fed, mild hepatic impairment
[15] = single oral 200 mg belumosudil, fed, moderate hepatic impairment
[16] = single oral 200 mg belumosudil, fed, normal hepatic function
[17] = single oral 200 mg belumosudil, fed, severe hepatic impairment

CC(C)NC(=O)COc1cccc(-c2nc(Nc3ccc4[nH]ncc4c3)c3ccccc3n2)c1 [belumosudil, 2-{3-[4-(1H-indazol-5-ylamino)-2-quinazolinyl]phenoxy}-N-(propan-2-yl) acetamide]
dose with decreased follicular development in ovaries ([1]; rats): 275 mg/kg/day | reversal of reproductive organ changes ([1]; recovery period, rats and dogs): partially or fully reversed | IC50 (ROCK1): […] | maternal exposure (AUC) multiple of human exposure with adverse developmental outcomes [2]: ≥ 3 times the human exposure | metabolism by CYP2D6 (CYP2D6 [3]): to a lesser extent | Vd/F ([4]; geometric means across participants with hepatic impairment (mild, moderate, severe)): 76.6 to 105 L | Vd/F [4, 10]: 105 L | Vd/F [4, 11]: 76.6 L | Vd/F [4, 12]: 193 L | Vd/F [4, 13]: 95.7 L | AUC(0-inf) [4, 10]: 16000 ng·h/mL | AUC(0-t) [4, 10]: 15800 ng·h/mL | AUC(0-t) at 24 h [4, 10]: 15400 ng·h/mL | CL/F [4, 10]: 208 mL/min | Cmax [4, 10]: 2590 ng/mL | Tmax [4, 14]: 2.98 h | AUC(0-inf) [4, 11]: 23700 ng·h/mL | AUC(0-t) [4, 11]: 23100 ng·h/mL | AUC(0-t) at 24 h [4, 11]: 21300 ng·h/mL | CL/F [4, 11]: 140 mL/min | Cmax [4, 11]: 2490 ng/mL | half-life [4, 11]: 6.3 h | Tmax [4, 15]: 4 h | AUC(0-inf) [4, 12]: 12800 ng·h/mL | AUC(0-t) [4, 12]: 12000 ng·h/mL | AUC(0-t) at 24 h [4, 12]: 11300 ng·h/mL | CL/F [4, 12]: 260 mL/min | Cmax [4, 12]: 2190 ng/mL | half-life [4, 12]: 8.58 h | Tmax [4, 16]: 3.5 h | AUC(0-inf) [4, 13]: 30100 ng·h/mL | AUC(0-t) [4, 13]: 29600 ng·h/mL | AUC(0-t) at 24 h [4, 13]: 23400 ng·h/mL | CL/F [4, 13]: 110 mL/min | Cmax [4, 13]: 2170 ng/mL | half-life [4, 13]: 10 h | Tmax [4, 17]: 5.02 h | concentration profile and exposure ([4]; one participant with moderate impairment): […] | t1/2 [4, 10]: 5.86 h and 5.86 (45.2) h | tlast [4, 14]: 36.0 h | t1/2 [4, 11]: 6.30 (44.4) [7] h | tlast [4, 15]: 48.0 h | t1/2 [4, 12]: 8.58 (48.8) [13] h | tlast [4, 16]: 48.0 h | t1/2 [4, 13]: 10.00 (40.7) h | tlast [4, 17]: 48.0 h | concentration profiles and exposures ([4]; two participants with severe impairment): […] | IC50 (ROCK2): […] | P-gp inhibition (P-gp [5]): inhibits | CYP2D6 inhibition (CYP2D6 [6]): inhibitor | P-gp substrate (P-gp [7]): substrate | differences in belumosudil pharmacokinetics by age, sex, weight, renal impairment [8]: No clinically significant differences | CYP1A2 inhibition (CYP1A2): inhibitor | aberrant pro-fibrotic signaling (pro-fibrotic signaling): inhibits aberrant pro-fibrotic signaling | doses with maternal toxicity (body weight loss and mortality) ([9]; oral): ≥ 125 mg/kg/day | doses with embryo-fetal effects ([9]; oral, spontaneous abortion, post-implantation loss, malformations, decreased fetal weight): ≥ 50 mg/kg/day | maternal exposure (AUC) causing embryo-fetal mortality and malformations vs patients ([9]; organogenesis): less than those in patients at the recommended dose | metabolism by CYP2C8 (CYP2C8): to a lesser extent | UGT1A9 inhibition (UGT1A9): inhibitor
